Assay results as given in the Kinase Knowledgebase extract (Sharma et al. 2016).

Biological target: MAPK14 (human) (UniProt Q16539)
Assay: Inhibition of MAPK14 Kinase Activity

Sequence of MAPK14 (human) (Q16539 whole entry, looked up): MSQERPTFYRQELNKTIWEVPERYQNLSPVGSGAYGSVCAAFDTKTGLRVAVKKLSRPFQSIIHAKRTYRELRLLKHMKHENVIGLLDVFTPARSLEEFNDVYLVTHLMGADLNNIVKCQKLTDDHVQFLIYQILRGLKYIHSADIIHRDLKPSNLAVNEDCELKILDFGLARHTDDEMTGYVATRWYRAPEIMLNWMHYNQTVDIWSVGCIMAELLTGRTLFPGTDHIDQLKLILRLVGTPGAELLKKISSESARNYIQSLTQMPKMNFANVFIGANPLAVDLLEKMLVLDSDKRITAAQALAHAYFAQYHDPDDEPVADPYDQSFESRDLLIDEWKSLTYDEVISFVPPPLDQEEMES

SMILES | IC50
COC(=O)C(CCN)NC(=O)c1cc2c(cnn2CC(F)(F)F)cc1Oc1ccc(F)cc1 (stereo not drawn) | < 500 nM
CC(C)Cn1ncc2cc(C(=NOCc3ccccc3)c3ccc(F)cc3F)ccc21 | < 500 nM
CN(C)CCNC(=O)c1cc2c(cnn2CC(F)(F)F)cc1Oc1ccc(F)cc1 | < 500 nM
CC(C)Cn1ncc2cc(Nc3ccc(F)cc3)ccc21 | < 500 nM
Cc1ccccc1C(O)c1ccc2c(cnn2CC(C)C)c1 (stereo not drawn) | < 500 nM
CC(C)Cn1ncc2cc(C(=O)c3ccc(Cl)cc3Cl)ccc21 | < 500 nM
CC(C)Cn1ncc2cc(C(O)c3ccc(F)cc3)ccc21 (stereo not drawn) | < 500 nM
Cc1ccccc1C(=O)c1ccc2c(cnn2CC(C)C)c1 | < 500 nM
CC(C)Cn1ncc2cc(C(O)c3ccc(Cl)cc3Cl)ccc21 (stereo not drawn) | < 500 nM
CC(C)Cn1ncc2cc(C(=O)c3ccc(F)cc3F)ccc21 | < 500 nM
CC(C)Cn1ncc2cc(C(=O)c3ccc(Cl)cc3F)ccc21 | < 500 nM
O=C(c1ccc2c(cnn2CC(F)(F)F)c1)c1ccc(F)cc1F | < 500 nM
CC(C)Cn1ncc2cc(C(O)c3ccc(F)cc3F)ccc21 (stereo not drawn) | < 500 nM
CC(C)Cn1ncc2cc(Oc3ccc(F)cc3)c(C(=O)NCCN(C)C)cc21 | < 500 nM
CC(C)Cn1ncc2cc(C(=NO)c3ccc(F)cc3F)ccc21 | < 500 nM
CC(C)Cn1ncc2cc(C(=NO)c3ccc(F)cc3)ccc21 | < 500 nM
CC(C)Cn1ncc2cc(Nc3ccc(F)cc3F)ccc21 | < 500 nM

SMILES | IC50
CC(C)Cn1ncc2cc(Oc3ccc(F)cc3)c(C(N)=O)cc21 | < 500 nM
CC(C)Cn1ncc2cc(C(O)c3ccc(F)cc3Cl)ccc21 (stereo not drawn) | < 500 nM
CC(C)Cn1ncc2cc(C(=O)c3ccc(F)cc3)ccc21 | < 500 nM
CC(C)Cn1ncc2cc(C(=O)c3ccc(F)cc3Cl)ccc21 | < 500 nM
C=CCn1ncc2cc(C(=NO)c3ccc(F)cc3F)ccc21 | < 500 nM
Cc1ccccc1Nc1ccc2c(cnn2CC(C)C)c1 | < 500 nM
CCON=C(c1ccc2c(cnn2CC(C)C)c1)c1ccc(F)cc1F | < 500 nM
ON=C(c1ccc2c(cnn2CC(F)(F)F)c1)c1ccc(F)cc1F | < 500 nM
C=CCn1ncc2cc(C(=O)c3ccc(F)cc3F)ccc21 | < 500 nM
CON=C(c1ccc2c(cnn2CC(F)(F)F)c1)c1ccc(F)cc1F | < 500 nM
CS(=O)(=O)n1ncc2cc(C(=NO)c3ccc(F)cc3F)ccc21 | < 500 nM
CON=C(c1ccc2c(cnn2S(C)(=O)=O)c1)c1ccc(F)cc1F | < 500 nM
CCON=C(c1ccc(F)cc1)c1ccc2c(cnn2CC(C)C)c1 | < 500 nM
COC(=O)C(CCN)NC(=O)c1cc2c(cnn2CC(C)C)cc1Oc1ccc(F)cc1 (stereo not drawn) | < 500 nM
CON=C(c1ccc(F)cc1)c1ccc2c(cnn2CC(C)C)c1 | < 500 nM
CC(C)Cn1ncc2cc(C(O)c3ccc(Cl)cc3F)ccc21 (stereo not drawn) | < 500 nM
